In article PMC7456637, “Pharmacokinetic characterization of fluorocoxib D, a cyclooxygenase-2-targeted optical imaging agent for detection of cancer” (Journal of Biomedical Optics, 2020):
Values joined by “and” are separate entries in the source; they are usually repeats but may differ in a detail not shown here. Equal entries are not always repeated. “Also recorded” adds a separate entry of the source.

What was measured:
[1] = parameters: method as in earlier work; details: cited from earlier work
[2] = tested on: COX-2-expressing human 5637 cancer cells; assay: Fluorocoxib D uptake by human 5637 cancer cells (fluorescence microscopy); assay type: cell-based; details: 50 nM, 30 min, COX-2-positive 5637 cells
Method: Human 5637 cells were seeded on four-chamber slides (Nalge Nunc, Rochester, New York) and grown until reached 70% to 80% confluence. […] The nuclei of cells were stained with DAPI for 10 min, and slides were mounted using an aqueous mounting medium. Images of cells were captured by a Leica DMi8 fluorescent microscope with Hamamatsu Orca Flash 4.0LT Digital CMOS Camera (Leica Microsystems Inc., Chicago, Illinois) using Leica Application Suite X software (LASX, Leica).

[3] = Pharmacokinetics of fluorocoxib D in research dogs, plasma HPLC; assay type: in vivo, dog
Method: (§1) The animal studies were performed in the accordance with the University of Tennessee Institutional Animal Care and Use Committee (UT IACUC)-approved protocols and in an accordance with NIH guidelines. Individually housed research healthy female beagle dogs (Covance Research Product) with weights of 6.7 to 10.3 kg were used to assess the safety and pharmacokinetic parameters of fluorocoxib D administrated a dose of 1 mg/kg over 20 min intravenously (i.v.).
To determine the pharmacokinetic parameters of fluorocoxib D ( 1 mg/kg , i.v.) in dogs, blood (2 to 3 ml) was collected from the jugular vein into EDTA-treated tubes at 0, 0.5, 1, 2, 4, 8, and 24 h after compound administration. The blood was centrifuged within 20 min of sample collection. Plasma was removed and stored at −80°C until further HPLC analysis.
Levels of fluorocoxib D were determined in collected canine plasma samples using HPLC at Vanderbilt University (JU). The frozen samples were thawed and extracted with acetonitrile. The organic layer was collected, dried, and reconstituted in methanol and water. The unknown samples were quantitated against a 5-point standard curve, which was prepared by mixing known quantities of fluorocoxib D with commercial canine plasma (Sigma-Aldrich) and subjecting the resulting samples to liquid–liquid extraction and HPLC. Samples were analyzed using a reverse-phase column (C18, 5×0.2 cm , Phenomenex) with gradient elution. The mobile phase component A was water, and B was acetonitrile, each containing 0.1% acetic acid. The gradient was 50% B to 90% B over 5 min, followed by a brief hold and return to initial conditions. The flow rate was 0.3 ml/min .
The pharmacokinetic parameters for fluorocoxib D were estimated from the plasma concentration-time data by a nonlinear mixed effects approach, as implemented with Monolix 4.1.2 (Lixoft S.A.S., Orsay, France). This approach allowed analyzing data from all animals at the same time and was ideal for relatively sparse datasets like the one used in this study. The plasma clearance (Cl), representing the overall ability of the body to eliminate fluorocoxib D, was determined by scaling its elimination rate (amount per time) by the corresponding plasma concentration level. The volume of distribution (Vd) was defined as the ratio of the total amount of fluorocoxib D in the body to the blood plasma concentration. The Cl and Vd were estimated directly from the study population data. The peak concentration in plasma ( Cmax ) and the following pharmacokinetic parameters were obtained by averaging the corresponding post-hoc Bayesian estimates. The individual partial areas under the curve between times 0 and 8 h ( AUC0−8 ) and the AUC0−∞ with extrapolation to infinity were calculated using the log-linear trapezoidal rule, as implemented with WinNonlin 5.1 (Pharsight, Mountain View, California). The mean residence time (MRT) value was determined as the ratio of the area under the first moment curve over AUC0−∞ . The elimination rate constant was determined as the slope obtained by linear regression of the terminal log-linear portion of the concentration versus time curve, and the elimination half-life ( t1/2 ) was then calculated. The plasma concentration graphs were generated using calculated averaged plasma concentrations of fluorocoxib D from six dogs after 1 mg/kg i.v. of fluorocoxib D administration performed over 20 min.

[4] = Pilot safety study: complete blood count (CBC); assay type: in vivo, dog
Method: as §1
(§2) For single dose safety evaluation studies, we administrated fluorocoxib D at 1 mg/kg , i.v. using a preplaced cephalic or saphenous vein catheter over 20 min to six healthy research dogs following protocol as described previously.[38] Briefly, physical examinations for signs of potential drug toxicity were performed before, during, and daily for 3 days after fluorocoxib D administration. Physical assessment included auscultation of heart and lungs, abdominal palpation, body temperature, appetite, attitude, activity levels monitoring, and other health-related events. Hypersensitivity was evaluated by direct observation of each dog during treatment for clinical signs of an allergic reaction (facial swelling, flushing, urticaria, dyspnea, scratching, and changes of heart rates). […] Laboratory evaluations of blood and urine were carried out before and 3 days after fluorocoxib D administration to monitor signs of toxicity. Blood (up to 3 ml) was collected into ethylenediaminetetraacetic acid (EDTA) and heparin-treated tubes, and urine (up to 5 ml) was collected by cystocentesis or from the floor of the runs. The laboratory evaluation consisted of a complete blood count (CBC), serum chemistry profile, and complete urinalysis. The CBC evaluated total white blood cells (WBC) and hematocrit (HCT), in addition to absolute numbers of neutrophils, lymphocytes, monocytes, eosinophils, and platelets. The plasma chemistry profile evaluated blood urea nitrogen (BUN), creatinine, proteins (albumin, globulins, and total proteins), alanine aminotransferase (ALT), total bilirubin, glucose, and electrolytes. The complete urinalysis evaluated urine proteins, glucose, and ketones; a sediment examination and urine-specific gravity were validated as well for any possible signs of renal toxicity of fluorocoxib D. All laboratory tests were carried out at the Veterinary Medical Center of the University of Tennessee in Knoxville.

[5] = Pilot safety study: physical examination and adverse events; assay type: in vivo, dog
Method: as §1
as §2, with “Blood (up to 3 ml) was collected into ethylenediaminetetraacetic acid (EDTA) and heparin-treated tubes, and urine (up to 5 ml) was collected by cystocentesis or from the floor of the runs. The laboratory evaluation consisted of a complete blood count (CBC), serum chemistry profile, and complete urinalysis.” left out

[6] = tested on: COX1; details: cited from earlier work
[7] = female, beagle, dog, plasma, iv, 1 mg/kg i.v., six research dogs, mean ± S.D.

COc1ccc2c(c1)c(CC(=O)NCCCCNC(=O)c1ccc(C3=c4cc5c6c(c4Oc4c3cc3c7c4CCCN7CCC3)CCC[N+]=6CCC5)cc1)c(C)n2C(=O)c1ccc(Cl)cc1 [Fluorocoxib D, N -[(rhodamin-X-yl)but-4-yl]-2-[1-(4-chlorobenzoyl)-5-methoxy-2-methyl-1H-indol-3-yl]acetamide]
Water solubility compared to fluorocoxib A [1]: improved water solubility
Uptake of fluorocoxib D by 5637 cells [2]: Selective uptake
Peak concentration in plasma ([3]; 1 mg/kg i.v. over 20 min, dogs, HPLC): 114.8 ± 50.5 ng/mL
Detection in plasma after 4 h following administration ([3]; 1 mg/kg i.v., dogs, HPLC): No fluorocoxib D was detected; also recorded: No detectable levels
Tmax ([3]; female, beagle, dog, plasma, iv, 1 mg/kg i.v. over 20 min, dogs, read-out: Time of peak plasma concentration after administration): 30 min
Cmax ([3]; female, beagle, dog, plasma, iv, 1 mg/kg i.v. over 20 min, six research dogs, mean ± S.D.): 110 ± 50 ng/mL
AUC(0-inf) [3, 7]: 150 ± 50 ng·h/mL
MRT [3, 7]: 87.6 ± 25.2 min
AUC(0-t) ([3]; female, beagle, dog, plasma, iv, 1 mg/kg i.v., six research dogs, mean ± S.D., read-out: AUC0-8): 110 ± 40 ng·h/mL
clearance ([3]; female, beagle, dog, plasma, iv, 1 mg/kg i.v., six research dogs, mean ± S.D., read-out: Cl (clearance) (converted)): 123 mL/min/kg
Vd ([3]; female, beagle, dog, plasma, iv, 1 mg/kg i.v., six research dogs, mean ± S.D., read-out: Vdarea (volume of distribution)): 9.97 ± 4.76 L/kg
half-life ([3]; female, beagle, dog, plasma, iv, 1 mg/kg i.v., six research dogs, mean ± S.D., read-out: t1/2 (terminal/elimination half-life) (converted)): 54.6 ± 17.4 min
PLT EST (platelet estimate), After ([4]; 3 days after single dose 1 mg/kg i.v., dog #3, ADQ = adequate): ADQ
PLT CNT (platelets counts), After ([4]; 3 days after single dose 1 mg/kg i.v., dog #3, reference range 147 to 423): 241000 µL⁻¹
Abs BAN (absolute band neutrophils), After ([4]; 3 days after single dose 1 mg/kg i.v., dog #6, reference range 0 to 0.3): 0 µL⁻¹
Abs EOS (absolute eosinophils), After ([4]; 3 days after single dose 1 mg/kg i.v., individual dogs #1-#6, reference range 0 to 0.85, 1 mg/kg): 240 µL⁻¹ and 360 µL⁻¹ and 140 µL⁻¹ and 200 µL⁻¹ and 180 µL⁻¹ and 170 µL⁻¹
Abs MON (absolute monocytes), After ([4]; 3 days after single dose 1 mg/kg i.v., individual dogs #1-#6, reference range 0.165 to 0.85, 1 mg/kg): 230 µL⁻¹ and 300 µL⁻¹ and 240 µL⁻¹ and 490 µL⁻¹ and 380 µL⁻¹ and 620 µL⁻¹
Abs LYM (absolute lymphocytes), After ([4]; 3 days after single dose 1 mg/kg i.v., individual dogs #1-#6, reference range 1.1 to 4.6, 1 mg/kg): 1610 µL⁻¹ and 2050 µL⁻¹ and 2220 µL⁻¹ and 1880 µL⁻¹ and 2300 µL⁻¹
Abs SEG (absolute segmented neutrophils), After ([4]; 3 days after single dose 1 mg/kg i.v., individual dogs #1-#6, reference range 2.65 to 9.8, 1 mg/kg): 3.22 ×10^3/μl and 2.98 ×10^3/μl and 4 ×10^3/μl and 4.72 ×10^3/μl and 5.07 ×10^3/μl and 2.4 L ×10^3/μl
WBC (white blood cells), After ([4]; 3 days after single dose 1 mg/kg i.v., individual dogs #1-#6, reference range 5.1 to 14, 1 mg/kg): 5.3 ×10^3/μl (2×) and 5.7 ×10^3/μl and 6.6 ×10^3/μl and 7.3 ×10^3/μl and 7.8 ×10^3/μl
HCT (hematocrit), After ([4]; 3 days after single dose 1 mg/kg i.v., individual dogs #1-#6, reference range 41 to 60, 1 mg/kg): 45.2% and 47.2% (2×) and 45.6% and 47% and 48.1%
Neutrophil finding 3 days after administration ([4]; dog #6, remained afebrile and clinically normal, cause uncertain): mild neutropenia
Adverse events including diarrhea, vomiting, nausea, and loss of appetite ([5]; 1 mg/kg i.v. over 20 min, six research dogs): not observed
Overall safety / toxicity of single dose ([5]; 1 mg/kg i.v. over 20 min, six research dogs, 3 days observation): No evidence of toxicity; also recorded: safe dose; also recorded: no clinically relevant adverse events
Salivation during administration ([5]; one dog of six, during 20 min i.v. administration, attributed to DMSO solvent): increased salivation
IC50 [6]: 4 µM
